According to patent US12215093B2, “Bicyclic carboxamides and methods of use thereof” (Tempest Therapeutics, Inc., priority 2018, dated 2025):

Assays:
EP4 = molecular target: T1, EP4 (Homo sapiens, UniProt P35408); test: Functional calcium flux assay, EP4; format: cell-based; details: stably transfected HEK293 cells; PGE2 10 nM; read-out: EP4 Ca2+-flux assay IC50
T1 construct: host or cells: stably transfected HEK293 cells co-expressing a promiscuous G protein and a clytin variant
Method: Each receptor subtype has an additional promiscuous G protein added in order to couple the aforementioned receptor to the calcium signaling pathway. The parental cell line used also expresses a novel variant of clytin, a calcium-activated photo-protein, to enable sensitive luminescent detection. Briefly, cells were plated at 50,000 cells-per-well in black, clear bottom 96-well plates. The plated cells were allowed to sit at room temperature for 30 min prior to transferring to a humidified, 37° C., 5% CO2 incubator for 18 to 24 h. Assay buffer (HBSS with 20 mM HEPES) and loading buffer (assay buffer plus 10 μM coelenterazine) were prepared on the day of the assay. Assays were performed by aspirating media from the assay plate and washing once with assay buffer, then replacing with loading buffer and allowing the cells to incubate for 1.5 h at room temperature. Compounds were prepared in assay buffer at a 3× final concentration in non-binding plates. Compounds were added to the cell plates and incubated for 30 min at room temperature. The prostanoid receptor ligand PGE2 was prepared at a 4× dilution ratio for a final concentration of 10 nM. Plates were run on a Flexstation™ using a 100 ms integration luminescence protocol for a total of 60 sec with ligand addition at 15 sec. Data were obtained from relative light units as measured by area under the curve.

EP2 = EP2 (Homo sapiens, UniProt P43116);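 note: functional calcium flux assay in stably transfected HEK293 cells expressing EP2 coupled via a promiscuous G protein, clytin luminescence read as area under the curve, 30 min compound preincubation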
Chain of EP2 (P43116 whole entry): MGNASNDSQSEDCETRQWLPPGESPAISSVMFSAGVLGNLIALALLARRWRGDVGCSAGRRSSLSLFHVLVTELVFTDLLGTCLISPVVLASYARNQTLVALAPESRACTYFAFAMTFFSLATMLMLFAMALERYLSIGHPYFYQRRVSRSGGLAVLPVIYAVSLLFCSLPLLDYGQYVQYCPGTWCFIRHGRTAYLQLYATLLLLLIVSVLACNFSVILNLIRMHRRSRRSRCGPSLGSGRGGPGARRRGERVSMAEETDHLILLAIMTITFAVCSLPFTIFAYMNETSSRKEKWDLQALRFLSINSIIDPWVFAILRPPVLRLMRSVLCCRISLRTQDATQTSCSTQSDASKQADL

T1 sequence (P35408 whole entry): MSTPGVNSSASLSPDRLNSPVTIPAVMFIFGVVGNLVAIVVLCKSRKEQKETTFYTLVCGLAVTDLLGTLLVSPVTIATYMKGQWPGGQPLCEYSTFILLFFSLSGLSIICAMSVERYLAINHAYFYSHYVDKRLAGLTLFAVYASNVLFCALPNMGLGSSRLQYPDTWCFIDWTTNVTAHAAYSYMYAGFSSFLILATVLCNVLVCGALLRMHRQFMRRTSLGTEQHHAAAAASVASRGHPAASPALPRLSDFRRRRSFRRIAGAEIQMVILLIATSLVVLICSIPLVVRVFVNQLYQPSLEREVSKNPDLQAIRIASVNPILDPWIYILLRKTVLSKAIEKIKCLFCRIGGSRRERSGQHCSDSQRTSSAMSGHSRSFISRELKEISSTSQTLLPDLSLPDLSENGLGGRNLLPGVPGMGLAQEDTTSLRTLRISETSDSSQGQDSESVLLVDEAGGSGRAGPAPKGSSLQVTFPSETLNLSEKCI

Structure (SMILES) | IC50 (EP4) | IC50 (EP2)
COc1cc(-c2ccc(Cn3ccc4c(F)ccc(C(=O)NC5CC6(CC(CC(=O)O)C6)C5)c43)cc2)ccn1 (centres unmarked) [Example 139, (Ra)-2-(6-(4-Fluoro-1-(4-(2-methoxypyridin-4-yl)benzyl)-1H-indole-7-carboxamido)spiro[3.3]heptan-2-yl)acetic acid] | < 1 nM | < 25 nM
COc1cc(C(=O)NC2CC3(C2)CC(C(=O)O)C3)c2c(cnn2Cc2ccc(-c3ccccc3)cc2)c1 (centres unmarked) [Example 159, (Sa)-6-(1-([1,1′-Biphenyl]-4-ylmethyl)-5-methoxy-1H-indazole-7-carboxamido)spiro[3.3]heptane-2-carboxylic acid] | < 1 nM | 65 nM
O=C(NC1CC2(C1)CC(C(=O)O)C2)c1ccc(F)c2ccn(Cc3ccc(-c4cccc(OC5COC5)c4)cc3)c12 (centres unmarked) [Example 57, (Sa)-6-(4-fluoro-1-((3′-(oxetane-3-yloxy)-[1,1′-biphenyl]-4-yl)methyl)-1H-indole-7-carboxamido)spiro[3.3]heptane-2-carboxylic acid] | < 1 nM | 99 nM
COc1cc(C#N)cc(-c2ccc(C(C)n3ncc4c(Cl)ccc(C(=O)NC5CC6(C5)CC(C(=O)O)C6)c43)cc2)c1 (racemic) [Example 123, (Sa)-6-(4-chloro-1-((racemic)-1-(3′-cyano-5′-methoxy-[1,1′-biphenyl]-4-yl)-ethyl)-1H-indazole-7-carboxamido)spiro[3.3]heptane-2-carboxylic acid] | 12 nM | 60 nM
CCOc1cc(-c2ccc(Cn3ccc4c(Cl)ccc(C(=O)NC5CC6(C5)CC(C(=O)O)C6)c43)cc2)ccn1 (centres unmarked) [Example 70, (Sa)-6-(4-chloro-1-(4-(2-ethoxypyridin-4-yl)benzyl)-1H-indole-7-carboxamido)spiro[3.3]heptane-2-carboxylic acid] | < 1 nM | < 25 nM
COc1cc(C(=O)NC2CC3(CC(CC(=O)O)C3)C2)c2c(cnn2Cc2ccc(-c3ccccc3)cc2)c1 (centres unmarked) [Example 164, (Ra)-2-(6-(1-([1,1′-Biphenyl]-4-ylmethyl)-5-methoxy-1H-indazole-7-carboxamido)spiro[3.3]heptan-2-yl)acetic acid] | < 1 nM | < 25 nM
O=C(NC1CC2(C1)CC(C(=O)O)C2)c1ccc(F)c2ccn(Cc3ccc(-c4cccc(OC(F)F)c4)cc3)c12 (centres unmarked) [Example 50, (Sa)-6-(1-((3’-(difluoromethoxy)-[1,1′-biphenyl]-4-yl)methyl)-4-f1uoro-1H-indole-7-carboxamido)spiro[3.3]heptane-2-carboxylic acid] | < 1 nM | 67 nM
CCOc1cc(-c2ccc(C(C)n3ncc4c(Cl)ccc(C(=O)NC5CC6(C5)CC(C(=O)O)C6)c43)cc2)ccn1 (racemic) [Example 124, (Sa)-6-(4-chloro-1-((racemic)-1-(4-(2-ethoxypyridin-4-yl)phenyl)-ethyl)-1H-indazole-7-carboxamido)spiro[3.3]heptane-2-carboxylic acid] | 3.9 nM | < 25 nM
CC(c1ccc(N2C[C@H]3C[C@H]3C2)cc1)n1ncc2c(Cl)ccc(C(=O)NC3CC4(C3)CC(C(=O)O)C4)c21 (single isomer, unassigned) [Example 132, (Sa)-6-(1-((R) or (S)-1-(4-((1R, 5S)-3-azabicyclo[3.1.0]hexan-3-yl)phenyl)ethyl)-4-chloro-1H-indazole-7-carboxamido)spiro[3.3]heptane-2-carboxylic acid] | 2.2 nM | < 25 nM
COc1cccc(-c2ccc(C(C)n3ncc4c(Cl)ccc(C(=O)NC5CC6(C5)CC(C(=O)O)C6)c43)cc2)c1 (racemic) [Example 122, (Sa)-6-(4-chloro-1-((racemic)-1-(3′-methoxy-[1,1′-biphenyl]-4-yl)-ethyl)-1H-indazole-7-carboxamido)spiro[3.3]heptane-2-carboxylic acid] | 4.7 nM | < 25 nM
